In general, IC50 refers to the concentration that gives 50% inhibition.

The record followed here is US20100003246A1, “Novel heterocyclic compounds and uses therof” (priority 2008, published 2010).

For this assay, the target named is T1, b-Raf(V600E) (Homo sapiens, UniProt P15056, V600E).
T1 construct: made in house
The experiment in a line: Raf/Mek Amplified Luminescence Proximity Homogeneous Assay (Alpha Screen), b-Raf(V600E). The format is biochemical. As to conditions: mutant b-Raf(V600E), read-out: mut-b-RAF (IC50 in uM). The procedure, abridged:
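Active b-Raf(V600E) (~4 pM) pre-incubated 60 min at room temperature with compound and kinase-dead biotinylated Mek (~10 nM) in Tris pH 7.5, MgCl2, BSA, DTT; ATP-started reaction ran 3 h, EDTA-stopped. Phospho-MEK detected by anti-p-MEK AlphaScreen luminescence; IC50 by non-linear regression.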

T1 sequence (P15056 whole entry V600E): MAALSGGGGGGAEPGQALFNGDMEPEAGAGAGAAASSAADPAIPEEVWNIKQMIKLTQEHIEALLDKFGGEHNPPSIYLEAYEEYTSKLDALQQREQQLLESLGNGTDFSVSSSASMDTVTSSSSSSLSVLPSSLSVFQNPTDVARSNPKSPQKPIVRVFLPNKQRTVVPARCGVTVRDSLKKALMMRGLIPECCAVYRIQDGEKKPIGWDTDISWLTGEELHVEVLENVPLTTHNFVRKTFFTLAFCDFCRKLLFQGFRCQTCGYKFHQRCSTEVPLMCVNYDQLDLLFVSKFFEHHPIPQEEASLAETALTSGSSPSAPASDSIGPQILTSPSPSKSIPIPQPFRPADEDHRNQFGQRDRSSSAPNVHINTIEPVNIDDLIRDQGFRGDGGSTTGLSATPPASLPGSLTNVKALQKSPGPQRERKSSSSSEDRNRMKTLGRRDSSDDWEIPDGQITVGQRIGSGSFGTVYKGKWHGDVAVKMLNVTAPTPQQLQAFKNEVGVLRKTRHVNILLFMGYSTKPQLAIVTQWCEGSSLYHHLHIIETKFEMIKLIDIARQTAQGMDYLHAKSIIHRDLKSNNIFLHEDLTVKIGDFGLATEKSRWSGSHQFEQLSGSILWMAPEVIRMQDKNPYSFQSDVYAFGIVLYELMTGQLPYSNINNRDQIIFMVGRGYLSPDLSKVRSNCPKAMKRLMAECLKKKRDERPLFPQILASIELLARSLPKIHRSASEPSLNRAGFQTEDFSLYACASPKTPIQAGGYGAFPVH

In the case of `COc1cc(-c2[nH]c(-c3cccc(C(C)C)c3)nc2-c2ccncc2)cnc1N` [Compound 115, 5-(2-(3-isopropylphenyl)-4-(pyridin-4-yl)-1H-imidazol-5-yl)-3-methoxypyridin-2-amine], the IC50 came out at 0.003 µM.
The figure for `COc1cc(-c2[nH]c(-c3cc(C(=O)N(C)C)ccc3F)nc2-c2ccncc2)cnc1N` [Compound 124, 3-(5-(6-amino-5-methoxypyridin-3-yl)-4-(pyridin-4-yl)-1H-imidazol-2-yl)-4-fluoro-N,N-dimethylbenzamide] is 0.0166 µM.
The figure for `COc1cc(-c2nc(-c3ccccc3)[nH]c2-c2ccnc(N)c2)cnc1N` [Compound 55, 5-(5-(2-aminopyridin-4-yl)-2-phenyl-1H-imidazol-4-yl)-3-methoxypyridin-2-amine] is 0.0098 µM; for `N#Cc1cc(-c2[nH]c(-c3ccccc3)nc2-c2ccncc2)cnc1N` [Compound 87, 2-amino-5-(2-phenyl-4-(pyridin-4-yl)-1H-imidazol-5-yl)nicotinonitrile] it is 0.391 µM.
The figure for `COc1cc(-c2[nH]c(-c3ccc(F)cc3C)nc2-c2ccncc2)cnc1N` [Compound 147, 5-(2-(4-fluoro-2-methylphenyl)-4-(pyridin-4-yl)-1H-imidazol-5-yl)-3-methoxypyridin-2-amine] is 0.0016 µM; for `COC(=O)c1ccc(-c2nc(-c3ccncc3)c(-c3cnc(N)c(OC)c3)[nH]2)cc1` [Compound 103, methyl 4-(5-(6-amino-5-methoxypyridin-3-yl)-4-(pyridin-4-yl)-1H-imidazol-2-yl)benzoate] it is 0.0007 µM.
For `COc1cc(-c2[nH]c(-c3cccc(C(N)=O)c3)nc2-c2ccncc2)cnc1N` [Compound 122, 3-(5-(6-amino-5-methoxypyridin-3-yl)-4-(pyridin-4-yl)-1H-imidazol-2-yl)benzamide], the IC50 stood at 0.0021 µM.
As to `COc1cc(-c2[nH]c(-c3cccc(OC)c3F)nc2-c2ccncc2)cnc1N` [Compound 116, 5-(2-(2-fluoro-3-methoxyphenyl)-4-(pyridin-4-yl)-1H-imidazol-5-yl)-3-methoxypyridin-2-amine], the IC50 came to 0.0017 µM.
Regarding `COc1cc(-c2nc(-c3ccc(F)cc3)[nH]c2-c2ccnc(C#N)c2)cnc1N` [Compound 173, 4-(4-(6-amino-5-methoxypyridin-3-yl)-2-(4-fluorophenyl)-1H-imidazol-5-yl)picolinonitrile], the concentration for half-maximal inhibition (IC50) worked out at 0.197 µM.
Consider `COCC(=O)N[C@@H](C)CNc1nccc(-c2[nH]c(-c3ccc(C(F)(F)F)cc3F)nc2-c2cnc(N)c(OC)n2)n1` [Compound 247, (S)-N-(1-(4-(4-(5-amino-6-methoxypyrazin-2-yl)-2-(2-fluoro-4-(trifluoromethyl)phenyl)-1H-imidazol-5-yl)pyrimidin-2-ylamino)propan-2-yl)-2-methoxyacetamide], for which the IC50 was 0.0001 µM.
Next, `COc1cc(-c2nc(C(C)(C)C)[nH]c2-c2ccnc(NC[C@H](C)NC(=O)C(F)(F)F)n2)cnc1N` [Compound 206, (S)-N-(1-(4-(4-(6-amino-5-methoxypyridin-3-yl)-2-tert-butyl-1H-imidazol-5-yl)pyrimidin-2-ylamino)propan-2-yl)-2,2,2-trifluoroacetamide]: 0.0003 µM.
Next, `CCc1cc(-c2[nH]c(-c3ccc(F)cc3)nc2-c2ccncc2)cnc1N` [Compound 105, 3-ethyl-5-(2-(4-fluorophenyl)-4-(pyridin-4-yl)-1H-imidazol-5-yl)pyridin-2-amine]: 0.215 µM; `COc1cc(-c2nc(C3CCOCC3)[nH]c2-c2ccncc2)cnc1N` [Compound 162, 3-methoxy-5-(5-(pyridin-4-yl)-2-(tetrahydro-2H-pyran-4-yl)-1H-imidazol-4-yl)pyridin-2-amine]: 0.0055 µM; `COc1cc(-c2nc(C3=CCNCC3)[nH]c2-c2ccncc2)cnc1N` [Compound 155, 3-methoxy-5-(5-(pyridin-4-yl)-2-(1,2,3,6-tetrahydropyridin-4-yl)-1H-imidazol-4-yl)pyridin-2-amine]: 0.0162 µM.
Next, `COc1cc(-c2[nH]c(-c3cccc(C#N)c3)nc2-c2ccncc2)cnc1N` [Compound 102, 3-(5-(6-amino-5-methoxypyridin-3-yl)-4-(pyridin-4-yl)-1H-imidazol-2-yl)benzonitrile]: 0.0011 µM; `COCC(=O)N1CCC[C@@H](Nc2nccc(-c3nc(-c4ccc(C(F)(F)F)cc4)[nH]c3-c3cnc(N)c(OC)c3)n2)C1` [Compound 97, (R)-1-(3-(4-(5-(6-amino-5-methoxypyridin-3-yl)-2-(4-(trifluoromethyl)phenyl)-1H-imidazol-4-yl)pyrimidin-2-ylamino)piperidin-1-yl)-2-methoxyethanone]: 0.031 µM; `CCS(=O)(=O)N1CCN(c2nc(-c3ccncc3)c(-c3cnc(N)c(OC)c3)[nH]2)CC1` [Compound 264, 5-(2-(4-(ethylsulfonyl)piperazin-1-yl)-4-(pyridin-4-yl)-1H-imidazol-5-yl)-3-methoxypyridin-2-amine]: 0.04 µM.
Take `COc1cc(-c2[nH]c(-c3ccc(F)cc3)nc2-c2ccnc(N[C@@H]3CCN(C(C)=O)C3)n2)cnc1N` [Compound 193, (R)-1-(3-(4-(5-(6-amino-5-methoxypyridin-3-yl)-2-(4-fluorophenyl)-1H-imidazol-4-yl)pyrimidin-2-ylamino)pyrrolidin-1-yl)ethanone]: the IC50 is 0.038 µM.
Next, `CCCNc1nccc(-c2nc(-c3ccc(F)cc3)[nH]c2-c2cnc(N)c(OC)c2)n1` [Compound 175, 4-(5-(6-amino-5-methoxypyridin-3-yl)-2-(4-fluorophenyl)-1H-imidazol-4-yl)-N-propylpyrimidin-2-amine]: 0.0012 µM; `COc1cc(-c2nc(C3(O)CCN(C)CC3)[nH]c2-c2ccncc2)cnc1N` [Compound 156, 4-(4-(6-amino-5-methoxypyridin-3-yl)-5-(pyridin-4-yl)-1H-imidazol-2-yl)-1-methylpiperidin-4-ol]: 0.0093 µM; `COCC(=O)N[C@@H](C)CNc1nccc(-c2[nH]c(C(C)C)nc2-c2cnc(N)c(OC)c2)n1` [Compound 226, (S)-N-(1-(4-(4-(6-amino-5-methoxypyridin-3-yl)-2-isopropyl-1H-imidazol-5-yl)pyrimidin-2-ylamino)propan-2-yl)-2-methoxyacetamide]: 0.0003 µM.
Next, `COCC(=O)NCCNc1nccc(-c2nc(-c3ccc(F)cc3)[nH]c2-c2cnc3[nH]cc(Cl)c3c2)n1` [Compound 160, N-(2-(4-(5-(3-chloro-1H-pyrrolo[2,3-b]pyridin-5-yl)-2-(4-fluorophenyl)-1H-imidazol-4-yl)pyrimidin-2-ylamino)ethyl)-2-methoxyacetamide]: 0.0003 µM; `Nc1ccc(-c2[nH]c(-c3ccccc3)nc2-c2ccncc2)cn1` [Compound 29, 5-(2-phenyl-4-(pyridin-4-yl)-1H-imidazol-5-yl)pyridin-2-amine]: 0.26 µM.
Turning to `COc1cc(-c2[nH]c(-c3ccc(F)cc3)nc2-c2ccnc(N[C@H]3CCN(S(C)(=O)=O)C3)n2)cnc1N` [Compound 200, (S)-4-(5-(6-amino-5-methoxypyridin-3-yl)-2-(4-fluorophenyl)-1H-imidazol-4-yl)-N-(1-(methylsulfonyl)pyrrolidin-3-yl)pyrimidin-2-amine], the IC50 is 0.004 µM.
The figure for `COc1cc(-c2[nH]c(-c3cccc(S(C)(=O)=O)c3)nc2-c2ccncc2)cnc1N` [Compound 120, 3-methoxy-5-(2-(3-(methylsulfonyl)phenyl)-4-(pyridin-4-yl)-1H-imidazol-5-yl)pyridin-2-amine] is 0.0088 µM; for `Fc1ccc(-c2nc(-c3ccncc3)c(-c3cnc4[nH]ccc4c3)[nH]2)cc1` [Compound 144, 5-(2-(4-fluorophenyl)-4-(pyridin-4-yl)-1H-imidazol-5-yl)-1H-pyrrolo[2,3-b]pyridine] it is 0.003 µM; for `COCCCNc1nccc(-c2nc(-c3ccc(F)cc3)[nH]c2-c2cnc(N)c(OC)c2)n1` [Compound 179, 4-(5-(6-amino-5-methoxypyridin-3-yl)-2-(4-fluorophenyl)-1H-imidazol-4-yl)-N-(3-methoxypropyl)pyrimidin-2-amine] it is 0.001 µM.
The figure for `COc1cc(-c2[nH]c(C3CC3)nc2-c2ccncc2)cnc1N` [Compound 76, 5-(2-cyclopropyl-4-(pyridin-4-yl)-1H-imidazol-5-yl)-3-methoxypyridin-2-amine] is 0.0015 µM; for `COc1cc(-c2[nH]c(-c3cccc(S(N)(=O)=O)c3)nc2-c2ccncc2)cnc1N` [Compound 132, 3-(5-(6-amino-5-methoxypyridin-3-yl)-4-(pyridin-4-yl)-1H-imidazol-2-yl)benzenesulfonamide] it is 0.001 µM; for `COc1cccc(Nc2nccc(-c3[nH]c(-c4ccc(F)cc4)nc3-c3cnc(N)c(OC)c3)n2)c1` [Compound 153, 4-(4-(6-amino-5-methoxypyridin-3-yl)-2-(4-fluorophenyl)-1H-imidazol-5-yl)-N-(3-methoxyphenyl)pyrimidin-2-amine] it is 0.0002 µM.
Regarding `COc1ccc(Cl)cc1-c1nc(-c2ccncc2)c(-c2cnc(N)c(OC)c2)[nH]1` [Compound 133, 5-(2-(5-chloro-2-methoxyphenyl)-4-(pyridin-4-yl)-1H-imidazol-5-yl)-3-methoxypyridin-2-amine], the IC50 worked out at 0.0005 µM.
As to `COc1cc(-c2nc(C(C)C)[nH]c2-c2ccncc2)cnc1N` [Compound 140, 5-(2-isopropyl-5-(pyridin-4-yl)-1H-imidazol-4-yl)-3-methoxypyridin-2-amine], the IC50 was found to be 0.0016 µM.
Next, `Cc1n[nH]c2ccc(-c3[nH]c(-c4ccccc4)nc3-c3ccncc3)cc12` [Compound 35, 3-methyl-5-(2-phenyl-4-(pyridin-4-yl)-1H-imidazol-5-yl)-1H-indazole]: 0.099 µM.
